# Assay results from patent publication US11512073B2, “Benzimidazole derivatives, pharmaceutical composition comprising the same, and use thereof” (Chongqing University of Arts and Sciences, priority 2020, dated 2022).
# Experiments:
# [1] = tested on: MDA-MB-231 cells; test: MTT cell viability assay; format: cell-based; settings: Homo sapiens
# Procedure: (§1) Compounds were dissolved in a hydrous dimethylsulfoxide (DMSO, Life technologies) to obtain a 50 mM stock solution, which was then added to the culture medium at a concentration range of 6.25-100 μM. Cells were treated with compounds at indicated concentrations for 48 h, and 0.1% DMSO was used as the vehicle. Z-VAD-FMK was purchased from Selleckchem (Houston, Tex.); The reagents including 3-(4,5-dimethylthiazol-2-yl)-2,5-diphenyltetrazolium bromide (MTT), dimethyl sulfoxide (DMSO), penicillin, streptomycin, propidium iodide (PI) were purchased from Sigma-Aldrich (MO, USA); All the primary antibodies used in this study were from Cell Signaling Technology (MA, USA) and the secondary antibodies were from LI-COR Biosciences (NE, USA).
# (§2) Human triple negative breast cancer cell lines MDA-MB-231 and MDA-MB-468 were purchased from the American Type Culture Collection (ATCC, VA, USA). These cells were cultured in high-glucose DMEM (Gibco, USA) supplemented with 10% fetal bovine serum (FBS, Gibco) and 1% penicillin/streptomycin (Gibco) at 37° C. in a humidified incubator containing 5% CO2.
# (§3) The antiproliferative activity of compounds was measured with the MTT assay. […] The absorbance value was determined at 570 nm using a microplate reader (Bio-Tek, VT, USA). Data were analyzed by GraphPad Prism 6. […]
# [2] = tested on: MDA-MB-468 cells; test: MTT cell viability assay; format: cell-based; settings: Homo sapiens
# Procedure: as §1, §2, §3
# [3] = tested on: HEK293T cells; test: HA-ubiquitin immunoprecipitation, H2A/H2AX ubiquitination; format: cell-based; settings: 20 μM compound 7a for 24 h
# Procedure: FIG. 6A: MDA-MB-231 and MDA-MB-468 were treated with indicated concentrations of compound 7a for 48 h, and then the immunofluorescence analysis was performed to detect γH2AX signal, the histone H2AX phosphorylation representing DSBs. Scale bar: 100 μm. FIG. 6B: γH2AX positive cells in (FIG. 6A) were counted and presented in the histogram. FIGS. 6C and 6D: following treatment with different concentrations (FIG. 6C) and times (FIG. 6D) of compound 7a, treated cell were lysed and phosphorylation/activation levels of ATM, NBS1, SMC1, γH2AX were examined by western blotting. Additionally, RNF8 and DNA repair proteins such as BRCA2 and RAD51 were detected using western. β-tubulin was employed as a loading control. […] P62 signal was measured by immunofluorescence analysis. […] HA-Ub was immunoprecipitated with HA binding beads and ubiquitinated H2A/H2AX was detected with anti-H2A/H2AX. […]
# MDA-MB-231 and MDA-MB-468 cells were treated with the compound 7a (0, 5, 10 and 20 μmol/L) for 48 h, total protein was extracted using RIPA buffer (Beyotime, Shanghai, China) supplemented with protease/phosphatase inhibitor cocktail (Roche, Mannheim, Germany) at 4° C. for 30 min. The protein concentration was quantified by the BCA protein assay kit (Beyotime). […] The objective protein signal was obtained using an odyssey two-color infrared fluorescence imaging system (Li-cor, NE, USA). […]
# [4] = tested on: MDA-MB-231 and MDA-MB-468 cells; test: Immunofluorescence of γH2AX and p62; format: cell-based, Human
# Procedure: Cells were plated on glass coverslips in 24-well plates prior to treatment. After being exposed to different doses of compound 7a for 48 h, cells were washed with PBS for three times, fixed with 4% paraformaldehyde-PBS for 30 min, and then followed by permeabilization with 0.1% Triton X-100 for 10 min. Next, the samples were blocked with QuickBlock Blocking Buffer for Immunol Staining (Beyotime) for 30 min at 37° C., and incubated with anti-Ki67 (1:250), anti-LC3B antibody (1:250), anti-SQSTM1 antibody (1:250) or anti-γH2AX (1:250) overnight at 4° C. After washing with PBS three times, the stained cells were incubated with Alexa Fluor-conjugated secondary antibodies (1:2000) for 1 hour at room temperature. Moreover, 1 mg/mL DAPI dissolved in PBS were employed to label nuclei (30 min). Images were captured with a High Content analysis system (Perkinelmer, MA, USA).
compound,measurement,setting,value
O=C(NC1CCCCC1)c1[nH]cnc1-c1nc2ccccc2[nH]1 [Compound 7a],IC50,[1],8.3 µM
same,IC50,[2],6 µM
same,formation of H2A poly-ubiquitin chains,[3],significantly reduced
same,γH2AX foci,[4]; 48 h,accumulation of γH2AX foci in nuclei
same,p62 signal in nuclei,[4]; dose-dependent,accumulated in the nuclei
